In patent US7713960B2, “Inhibition of the Raf/Mek/P-Erk pathway for treating cancer” (University of South Florida, priority 2005, dated 2010):
Structures can show the parent of a compound that is named as a salt.

Key:
P-Erk 1/2 [1] = experiment: P-Erk 1/2 levels (Western blotting), SNB-19; type: cell-based, human
Method: (§1) Western Blotting—Treated cell samples were lysed in 30 mM HEPES, 10 mM NaCl, 5 mM MgCl2, 25 mM NaF, 1 mM EGTA, 1% Triton-X-100, 10% Glycerol, 2 mM Sodium orthovanidate, 10 μg/mL aprotinin, 10 μg/mL soybean trypsin inhibitor, 25 μg/mL leupeptin, 2 mM phenylmethylsulfonylfluoride (PMSF), 6.4 mg/mL p-nitrophenylphosphate for 30 minutes at 4° C., and proteins run on SDS-PAGE gels then transferred to nitrocellulose membranes. Membranes were blocked in either 5% milk in PBS, pH 7.4, containing 0.1% Tween-20 (PBS-T) or 1% BSA in TBS, pH 7.5, containing 0.1% Tween-20 (TBS-T). Phospho-STAT3 and phospho-AKT antibodies were diluted in 1% BSA in TBS-T while phospho-c-Raf, phospho-Mek, and phospho-p44/p42 MAPK antibodies (Cell Signaling) were diluted in 5% milk in PBS-T for either 1 hour at room temperature or overnight at 4° C. HRP-conjugated secondary antibodies (Jackson ImmunoResearch, West Grove, Pa.) were diluted in 5% milk in PBS-T or TBS-T at a 1:1000 dilution for one hour at room temperature. Western blots results were visualized using enhanced chemiluminescence. Stripping of the membranes for reblotting was done using stripping buffer (62.5 mM Tris pH 7.6, 2% SDS, 0.7% 2-mercaptoethanol) at 50° C. for 30 minutes.

MDA-MB-231 cells [2] = experiment: Anchorage-dependent growth (MTT assay), MDA-MB-231; type: cell-based, human
Method: (§2) MTT Assay—2000 cells per well were plated into 96 well tissue culture plates, and the cells were allowed to attach overnight at 37° C. with 10% CO2. Cells were then treated with increasing concentrations of ARA-211, or vehicle (DMSO) and incubated for four days. At that time treatment medium was removed and replaced with 100 μl of lmg/ml MTT (Sigma-Aldrich, St. Louis, Mo.) in media and incubated at 37° C., 10% CO2 for 3 hours. After 3 hours the MTT media was removed and replaced with 100 μl/well of DMSO, rocked at room temperature for 5 minutes, then absorbance read at 540 nm on a micro-plate reader.

SF-539 cells = experiment: Anchorage-dependent growth (MTT assay), SF-539; type: cell-based, human
Method: as §2

A-549 cells = experiment: Anchorage-dependent growth (MTT assay), A-549; type: cell-based, human
Method: as §2

total Erk 1/2 = experiment: Total Erk 1/2 levels, MDA-MB-231; type: cell-based, human; settings: at 10 nM
Method: as §1

c-Raf-1 = molecular target: T1, c-Raf-1 (Homo sapiens, UniProt P04049); experiment: In vitro kinase assay, c-Raf-1 immunoprecipitated from MDA-MB-231 cells; type: biochemical; settings: immunoprecipitated kinase treated in vitro, 10 μM
T1 construct: c-Raf-1 and Mek-1, immunoprecipitated from MDA-MB-231 cells; endogenous in cells; host or cells: MDA-MB-231
Method: In Vitro Kinase Assays—MDA-MB-231 cells (2×10^6) were lysed for 30 minutes at 4° C. in RIPA-150 buffer (10 mM Tris pH 7.5, 150 mM NaCl, 10% glycerol, 5 mM EDTA, 1% Triton X-100, 0.1% SDS, 100 μM sodium orthovanadate, 1 μM aprotinin, 10 μM leupeptin, 10 μM antipain). Cell debris was pelleted at 13000 rpm for 15 minutes at 4° C. and the lysate was rocked overnight with 10 μg of either c-Raf or MEK antibodies (Santa Cruz Biotechnologies, Santa Cruz, Calif.). 25 μl of protein A/G PLUS agarose (Santa Cruz Biotechnology) was then added and rocked for 4 hours at 4° C. Samples were spun at 2000 rpm for 5 minutes to collect the agarose beads, which were then washed four times with lysis buffer. On the final wash each pellet was divided into 5. […]

MDA-MB-231 cells [3] = experiment: Alamar Blue proliferation assay, MDA-MB-231; type: cell-based, human; settings: MDA-MB-231 with CA-Mek; 10 μM, 48 hours
Method: Cell Lines and Transfections—All cell lines used were obtained from American Type Tissue Collection (ATCC), (Manassas, Va.), or from the DCTD Tumor Repository, (Frederick, Md.). Propagation was carried out according to ATCC protocols. Propagation media was obtained from Invitrogen Corporation (Carlsbad, Calif.). DNA transfections were carried out using TransIT-LT1 transfection reagent (Takara Mirus, Madison, Wis.) according to the manufacturer's protocol. Briefly, 4×10^5 MDA-MB-231 cells were grown to approximately 70% confluency in medium supplemented with 10% FBS (Atlanta Biologicals, Atlanta, Ga.) in the absence of antibiotics. For transfection, LT1 was pre-incubated in 200 μl per transfection in Opti-MEM (Invitrogen) for 20 minutes prior to addition of plasmid. […]
Alamar Blue proliferation assay—For proliferation assays using exogenous constitutively activated MEK or the B2AR antagonist ICI-118.551, Alamar Blue metabolism assay used to determine cell viability according to the manufacturers protocol (Biosource, Camarillo, Calif.). […] Media/Alamar Blue was removed from the cells and aliquoted into 96 well plates (100 μl per well) and fluorescence read on a Wallac Victor 2 plate reader at excitation 540 nm, and emission 615 nm.

P-Erk 1/2 [4] = experiment: Growth factor (EGF) stimulation of P-Erk 1/2, MDA-MB-231 cells; type: cell-based, human

T1 sequence (P04049 whole entry): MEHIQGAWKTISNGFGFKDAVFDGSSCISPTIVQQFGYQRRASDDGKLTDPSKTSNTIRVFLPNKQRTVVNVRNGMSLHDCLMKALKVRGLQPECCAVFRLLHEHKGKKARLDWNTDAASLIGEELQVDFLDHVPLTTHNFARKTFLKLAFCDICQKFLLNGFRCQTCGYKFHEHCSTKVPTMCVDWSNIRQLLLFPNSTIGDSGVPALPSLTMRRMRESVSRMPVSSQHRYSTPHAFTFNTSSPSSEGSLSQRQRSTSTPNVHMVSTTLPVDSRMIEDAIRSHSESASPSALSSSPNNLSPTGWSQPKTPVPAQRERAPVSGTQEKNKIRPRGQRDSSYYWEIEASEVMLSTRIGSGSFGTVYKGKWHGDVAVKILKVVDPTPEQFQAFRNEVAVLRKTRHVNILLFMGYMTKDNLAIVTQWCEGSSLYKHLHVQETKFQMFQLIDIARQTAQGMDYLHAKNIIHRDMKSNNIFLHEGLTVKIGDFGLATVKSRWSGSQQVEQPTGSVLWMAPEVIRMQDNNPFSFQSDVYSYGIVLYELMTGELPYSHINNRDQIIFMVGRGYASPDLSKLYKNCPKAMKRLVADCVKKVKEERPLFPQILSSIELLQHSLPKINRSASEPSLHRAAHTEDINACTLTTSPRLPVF

Compound: CC(C)(C)NCC(O)c1ccc(O)c(CO)n1 (centres unmarked) [ARA-211, 2-hydroxymethyl-3-hydroxy-6-(1-hydroxy-2-tert-butylaminoethyl) pyridine, dihydrochloride]
- P-Erk ½ (% Inhibition) (P-Erk 1/2 [1]): 0%
- Anchorage Dependent Growth (% Inhibition) (MDA-MB-231 cells [2]): 60.6 ± 6.5%
- Anchorage Dependent Growth (% Inhibition) (SF-539 cells): 55 ± 6.9%
- Anchorage Dependent Growth (% Inhibition) (A-549 cells): 9.6 ± 6.1%
- levels of total Erk 1/2 (total Erk 1/2): without affecting
- in vitro c-Raf-1 kinase activity (c-Raf-1): did not inhibit
- inhibition of tumor growth in cells ectopically expressing constitutively activated Mek-1 (MDA-MB-231 cells [3]): resistant
- growth factor (EGF) stimulation of P-Erk 1/2 (P-Erk 1/2 [4]): is blocked
